From PMC9669616, “The recommended dosage regimen for caspofungin in patients with higher body weight or hypoalbuminaemia will result in low exposure: Five years of data based on a population pharmacokinetic model and Monte-Carlo simulations” (Frontiers in Pharmacology, 2022)
Values after ≈ are worked out from the molar mass of the structure shown. Where two headings read alike, the source gives them in different places.

Key:
[1] = cited from earlier work
From the text: Van den Elst et al. found the caspofungin exposure in ICU patients was low compared with that in healthy volunteers and other (non)critically ill patients ([van der Elst et al., 2017]).

C. glabrata = settings: ref Li et al., 2013; cited from earlier work
From the text: (§1) The first goal of this study was to determine whether the contemporary dosage regimens for caspofungin can achieve the target PK/PD index against Candida isolates in all patients and especially in ICU patients. […] At present, the relationship between caspofungin Cmax and toxicity remains poorly clarified ([Kim et al., 2022]). In this study, we only used the fAUC/MIC as caspofungin PK/PD target for we could get th ...

C. albicans = settings: ref Li et al., 2013; cited from earlier work
From the text: as §1

C. parapsilosis = settings: ref Li et al., 2013; cited from earlier work
From the text: as §1

[2] = healthy subjects; ref Stone et al., 2002; cited from earlier work
From the text: Van den Elst et al. found the caspofungin exposure in ICU patients was low compared with that in healthy volunteers and other (non)critically ill patients ([van der Elst et al., 2017]). Many factors could influence the caspo ...

[3] = cited from earlier work; remark: listed apart in the source
From the text: Safety also needs to be considered when increasing the caspofungin exposure, because any harm to the patient should be minimal.

[4] = general population pharmacokinetic (PPK) model, all patients; assay type: in vivo, human; set-up: AUC: concentration or dose not given beside the values; settings: for AUC / clearance: general PPK model, mean ± SD (range)
Method: The patients for the general PPK model came from a single-center, and the study was conducted from June 2014 to June 2019 at the First Affiliated Hospital of Xi’an Jiaotong University. Patients who had been diagnosed with confirmed or probable candidiasis and been treated with caspofungin were included in the study. The identification of infection was according to the IFIs Cooperative Group and the National Institute of Allergy and Infectious Diseases Mycoses Study Group criteria ([De Pauw et al., 2008]). All patients were divided into four groups (ICU patients, SOT patients, HEMT patients, and other patients from respiratory department). Caspofungin was administered intravenously over 1 h. Most of the patients received the standard dosage regimen of 70/50 mg. Patients with hepatic insufficiency (Child-Pugh B) received a reduced dosage regimen of 70/35 mg and patients with body weight (WT) > 75 kg received an increased dosage regimen of 70/70 mg. The study protocol was approved by the institutional review board of the teaching hospital (No.XJTU1AF2017LSK-28). All subjects signed the informed consent before any screening item being performed. History of hypersensitivity, severe intolerance to caspofungin, other constituents change resulted from caspofungin, age <18 years and pregnancies were excluded in the study.
Factors which may influence the PK parameters of caspofungin were collected for the patients of the general PPK model from the teaching hospital. The factors included demographic factors (sex, age and WT); medical characteristics [carrier mediated transportation (CMT), surgical operation (SOP), baseline disease, organ support therapy]; laboratory data [red blood cells, hemoglobin, hematocrit, white blood cell, lymphocyte, neutrophile, platelets, alanine aminotransferase, aspartate transaminase, alkaline phosphatase, gamma-glutamyl transpeptidase, total bilirubin, albumin (ALB), blood urea nitrogen, uric acid, serum creatinine acid, creatinine clearance rate]; concomitant medications (immunosuppressants, glucocorticoid, antimicrobial agents and antivirals) and other related factors. Because we could not obtain all values of ICU patients for the seven literature studies, only factors which may have a great influence on the PK of caspofungin, such as sex, age, WT, dosage and method of administration, ALB concentrations and whether concomitant continuous renal replacement therapy (CRRT) of ICU patients from the teaching hospital and other seven studies were collected for the construction of the ICU-subgroup PPK model. The selection criteria were based on the results obtained from previous studies of factors influencing the caspofungin plasma concentration ([Spriet et al., 2009]; [Spriet et al., 2011]; [Weiler et al., 2013]; [Muilwijk et al., 2014]; [Sinnollareddy et al., 2015]; [Roger et al., 2017]; [van der Elst et al., 2017]). […] Combined with the clinical situation, the ALB and WT were converted into dichotomous variables according to whether the ALB <35 g/L or ≥35 g/L and whether the WT < 70 kg or ≥70 kg, respectively.
We collected the pooled data of caspofungin plasma samples from patients at the teaching hospital who received caspofungin prevention or treatment therapies from June 2014 to June 2019. Caspofungin plasma C min samples were collected at interval windows of 22–24 h post-dose, while other caspofungin plasma samples were collected at interval windows of 0–12 h and 12–22 h post-dose. The caspofungin plasma concentrations from the other seven studies of ICU patients—which included both dense sampling and sparse sampling—were directly collected from the relevant published papers, and all related caspofungin plasma concentrations were collected ([Spriet et al., 2009]; [Spriet et al., 2011]; [Weiler et al., 2013]; [Muilwijk et al., 2014]; [Sinnollareddy et al., 2015]; [Roger et al., 2017]; [van der Elst et al., 2017]). […]

ALB = settings: cited from earlier work
From the text: The final general and ICU-subgroup PPK models of caspofungin were used for the simulation study to evaluate the degree of exposure. A MCS method published before ([Pfaller et al., 2006]) was used for analyzing the probability of target attainment (PTA) and cumulative fraction of response (CFR) following various caspofungin dosage regimens in all patients and ICU patients. […] Caspofungin was extensively bound to ALB (97%) ([Stone ...

[5] = all patients n = 299, final model
[6] = human, plasma, iv, ICU patients of the teaching hospital
[7] = human, plasma, iv, all patients n = 299
[8] = human, plasma, iv, hematopathy patients
[9] = human, plasma, iv, other patients
[10] = human, plasma, iv, transplant (SOT) patients

SMILES: CC[C@H](C)C[C@H](C)CCCCCCCCC(=O)N[C@H]1C[C@@H](O)[C@@H](NCCN)NC(=O)[C@@H]2[C@@H](O)CCN2C(=O)[C@H]([C@H](O)CCN)NC(=O)[C@H]([C@H](O)[C@@H](O)c2ccc(O)cc2)NC(=O)[C@@H]2C[C@@H](O)CN2C(=O)[C@H]([C@@H](C)O)NC1=O [caspofungin]
- CL, typical value ([1]; ICU patients, day 1, ref Borsuk-De Moor et al., 2020): 0.563 L/h
- CL, typical value ([1]; ICU patients, day 2, ref Borsuk-De Moor et al., 2020): 0.737 L/h
- CL, typical value ([1]; ICU patients, day 3, ref Borsuk-De Moor et al., 2020): 1.01 L/h
- decrease in caspofungin exposure ([1]; ICU patients, increasing clearance with subsequent doses, ref Borsuk-De Moor et al., 2020): > 20%
- CL ([1]; ICU patients, ref Martial et al., 2016): 0.55 L/h
- CL ([1]; critically-ill Chinese patients, ref Li et al., 2021): 0.32 L/h
- CL ([1]; general patients, ref Wurthwein et al., 2012): 0.46 L/h
- CL ([1]; general patients, ref Wurthwein et al., 2013): 0.40 L/h
- MIC, mean (C. glabrata): 0.25 µg/mL (≈ 0.229 µM)
- MIC, range (C. glabrata): 0.047 to 0.38 µg/mL
- MIC, mean (C. albicans): 0.19 µg/mL (≈ 0.174 µM)
- MIC, range (C. albicans): 0.032 to 0.38 µg/mL
- MIC, mean (C. parapsilosis): 1.5 µg/mL (≈ 1.37 µM)
- MIC, range (C. parapsilosis): 0.38 to 2 µg/mL
- plasma trough concentration (C min), range [2]: 1120 to 1780 ng/mL
- tolerability ([3]; 150 mg daily for a median of 24.5 days, ref Cornely et al., 2011): well tolerated without dose-limiting toxicity
- tolerability ([3]; patients with invasive candidiasis, 150 mg daily, mean duration 14.2 days, ref Betts et al., 2009): well tolerated
- θ1, typical population value of CL [4, 5]: 0.32 L/h
- θ4, influence of ALB (<35 g/L) on V [4, 5]: 0.49
- θ6, influence of WT (≥70 kg) on V [4, 5]: 0.24
- θ4, influence of ALB (<35 g/L) on V ([4]; all patients, bootstrap, lower boundary of 95% CI): 0.25
- θ4, influence of ALB (<35 g/L) on V ([4]; all patients, bootstrap, upper boundary of 95% CI): 0.73
- AUC [4, 6]: 101 µg·h/mL
- clearance [4, 6]: 7.83 mL/min
- AUC [4, 7]: 126 µg·h/mL
- clearance [4, 7]: 7 mL/min
- AUC [4, 8]: 118 µg·h/mL
- clearance [4, 8]: 7.5 mL/min
- AUC [4, 9]: 120 µg·h/mL
- clearance [4, 9]: 6.83 mL/min
- AUC [4, 10]: 136 µg·h/mL
- clearance [4, 10]: 6.67 mL/min
- Vd ([4]; human, plasma, iv, all patients n = 299, final model, read-out: θ2, typical population value of V): 13.3 L
- bound to ALB (ALB; ref Stone et al., 2004): 97%
- protein binding value (ALB; used to calculate free drug concentrations in the simulation, ref Andes et al., 2010): 97%
